Experimental data as given in PubChem BioAssay (NCI).
Values joined by “and” are separate entries in the source; they are usually repeats but may differ in a detail not shown here. Equal entries are not always repeated.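 These data come from cells grown in 96-well plates and exposed to compound for 48 hours at five concentrations. GI50 = concentration required for 50% inhibition of growth. TGI: total growth inhibition.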

How the values were obtained:
Test in all cases: inhibition of tumour cell growth, NCI panel, 48 h
786-0 renal = test system: 786-0 renal
SNB-19 CNS = test system: SNB-19 CNS
IGROV1 ovarian = test system: IGROV1 ovarian
NCI-H23 lung = test system: NCI-H23 lung
NCI-H460 lung = test system: NCI-H460 lung
K-562 leukemia = test system: K-562 leukemia
OVCAR-4 ovarian = test system: OVCAR-4 ovarian
U251 CNS = test system: U251 CNS
RPMI-8226 leukemia = test system: RPMI-8226 leukemia
HCT-15 colon = test system: HCT-15 colon
UACC-257 melanoma = test system: UACC-257 melanoma
T-47D breast = test system: T-47D breast
TK-10 renal = test system: TK-10 renal
SF-295 CNS = test system: SF-295 CNS
UO-31 renal = test system: UO-31 renal
NCI/ADR-RES ovarian = test system: NCI/ADR-RES ovarian
SN12C renal = test system: SN12C renal
DU-145 prostate = test system: DU-145 prostate
RXF 393 renal = test system: RXF 393 renal
MALME-3M melanoma = test system: MALME-3M melanoma
MDA-N = test system: MDA-N
OVCAR-5 ovarian = test system: OVCAR-5 ovarian
HT29 colon = test system: HT29 colon
SK-MEL-5 melanoma = test system: SK-MEL-5 melanoma
SK-MEL-28 melanoma = test system: SK-MEL-28 melanoma
LOX IMVI melanoma = test system: LOX IMVI melanoma
MOLT-4 leukemia = test system: MOLT-4 leukemia
PC-3 prostate = test system: PC-3 prostate
CAKI-1 renal = test system: CAKI-1 renal
OVCAR-8 ovarian = test system: OVCAR-8 ovarian
SF-268 CNS = test system: SF-268 CNS
SK-MEL-2 melanoma = test system: SK-MEL-2 melanoma
M14 melanoma = test system: M14 melanoma
ACHN renal = test system: ACHN renal
UACC-62 melanoma = test system: UACC-62 melanoma
SW-620 colon = test system: SW-620 colon
SR leukemia = test system: SR leukemia
HCT-116 colon = test system: HCT-116 colon
SK-OV-3 ovarian = test system: SK-OV-3 ovarian
NCI-H226 lung = test system: NCI-H226 lung
NCI-H522 lung = test system: NCI-H522 lung
CCRF-CEM leukemia = test system: CCRF-CEM leukemia
EKVX NSCLC = test system: EKVX NSCLC
COLO 205 colon = test system: COLO 205 colon
KM12 colon = test system: KM12 colon
OVCAR-3 ovarian = test system: OVCAR-3 ovarian
HOP-92 NSCLC = test system: HOP-92 NSCLC
HS 578T breast = test system: HS 578T breast
HOP-62 NSCLC = test system: HOP-62 NSCLC
HL-60(TB) leukemia = test system: HL-60(TB) leukemia
SNB-75 CNS = test system: SNB-75 CNS
A549 NSCLC = test system: A549 NSCLC
MCF7 breast = test system: MCF7 breast
SF-539 CNS = test system: SF-539 CNS
MDA-MB-435 = test system: MDA-MB-435
A498 renal = test system: A498 renal
HCC-2998 colon = test system: HCC-2998 colon
MDA-MB-231 breast = test system: MDA-MB-231 breast
BT-549 breast = test system: BT-549 breast
LXFL 529 NSCLC = test system: LXFL 529 NSCLC
KM20L2 colon = test system: KM20L2 colon
M19-MEL melanoma = test system: M19-MEL melanoma
DMS 114 small cell lung = test system: DMS 114 small cell lung
DLD-1 colon = test system: DLD-1 colon
DMS 273 small cell lung = test system: DMS 273 small cell lung

## Cc1ccc(NS(=O)(=O)c2cccc(C#N)c2)c2[nH]cc(C#N)c12
786-0 renal
  GI50: 12 µM and 7.67 µM
  TGI: 55.7 µM and > 100 µM
SNB-19 CNS
  GI50: 16.1 µM and 24.6 µM
  TGI: > 100 µM
IGROV1 ovarian
  TGI: > 100 µM
NCI-H23 lung
  GI50: 27.5 µM and 27.7 µM
  TGI: 84.6 µM and > 100 µM
NCI-H460 lung
  GI50: 18.1 µM and 22.6 µM
  TGI: > 100 µM
K-562 leukemia
  GI50: 2.59 µM and 5.08 µM
  TGI: > 100 µM
OVCAR-4 ovarian
  GI50: 2.65 µM and 8.22 µM
  TGI: 87.2 µM and 51.2 µM
U251 CNS
  GI50: 17.5 µM and 15.2 µM
  TGI: > 100 µM
RPMI-8226 leukemia
  GI50: 18.1 µM and 10.5 µM
  TGI: 76.6 µM and 52.2 µM
HCT-15 colon
  GI50: 6.14 µM and 14.1 µM
  TGI: > 100 µM
UACC-257 melanoma
  GI50: 21.9 µM and 22.5 µM
  TGI: 69.1 µM and 84.7 µM
T-47D breast
  GI50: 5.21 µM and 10.2 µM
  TGI: > 86.4 µM
TK-10 renal
  GI50: 24.6 µM and 22.4 µM
  TGI: > 92.5 µM
SF-295 CNS
  GI50: 2.85 µM and 2.22 µM
  TGI: 49.7 µM and 52.9 µM
UO-31 renal
  GI50: 14.7 µM and 9.17 µM
  TGI: 63.8 µM and 56.3 µM
NCI/ADR-RES ovarian
  GI50: 14.2 µM and 2.49 µM
  TGI: > 92.5 µM
SN12C renal
  GI50: 25.5 µM and 27.3 µM
  TGI: > 94.7 µM
DU-145 prostate
  GI50: 23.9 µM and 28.8 µM
  TGI: > 100 µM
RXF 393 renal
  GI50: 17.6 µM and 1.99 µM
  TGI: 74.3 µM and 68.1 µM
MALME-3M melanoma
  GI50: 15.5 µM and 12.9 µM
  TGI: 57.1 µM and 68.2 µM
MDA-N
  GI50: 4.1 µM
  TGI: > 91.6 µM
OVCAR-5 ovarian
  GI50: 16.7 µM and 30.6 µM
  TGI: > 92.7 µM
HT29 colon
  GI50: 33.5 µM and 12.5 µM
  TGI: > 100 µM
SK-MEL-5 melanoma
  GI50: 15.6 µM and 17 µM
  TGI: 33.5 µM and 43.3 µM
SK-MEL-28 melanoma
  GI50: 20.2 µM and 7.55 µM
  TGI: 98.5 µM and > 44.9 µM
LOX IMVI melanoma
  GI50: 16.7 µM and 14.9 µM
  TGI: > 100 µM
MOLT-4 leukemia
  GI50: 8.87 µM and 13.6 µM
  TGI: > 100 µM
PC-3 prostate
  GI50: 12 µM and 19 µM
  TGI: 98.4 µM and > 100 µM
CAKI-1 renal
  GI50: 3.69 µM and 15.7 µM
  TGI: > 96.8 µM
OVCAR-8 ovarian
  GI50: 19.1 µM and 15.8 µM
  TGI: > 100 µM and 69.3 µM
SF-268 CNS
  GI50: 35 µM and 30.9 µM
  TGI: > 100 µM
SK-MEL-2 melanoma
  GI50: 22.5 µM and 15.1 µM
  TGI: 59.7 µM and 52.4 µM
M14 melanoma
  GI50: 20 µM and 16.3 µM
  TGI: > 100 µM
ACHN renal
  GI50: 12.6 µM and 16.3 µM
  TGI: > 96.7 µM and 98.3 µM
UACC-62 melanoma
  GI50: 7.07 µM and 15.4 µM
  TGI: 32.2 µM and 53.2 µM
SW-620 colon
  GI50: 0.76 µM and 1.7 µM
  TGI: > 100 µM
SR leukemia
  GI50: 18.2 µM and 6.8 µM
  TGI: > 100 µM
HCT-116 colon
  GI50: 0.146 µM and 0.157 µM
  TGI: > 100 µM
SK-OV-3 ovarian
  GI50: 0.829 µM and 0.361 µM
  TGI: 63.4 µM and 74.1 µM
NCI-H226 lung
  GI50: 22.5 µM and 25.5 µM
  TGI: > 96.4 µM
NCI-H522 lung
  TGI: 59.9 µM and 23.2 µM
CCRF-CEM leukemia
  GI50: 11.9 µM and 14.3 µM
  TGI: > 100 µM
EKVX NSCLC
  GI50: 26.6 µM
  TGI: 80.9 µM
COLO 205 colon
  GI50: 14.2 µM and 1.51 µM
  TGI: 53.7 µM and 37.3 µM
KM12 colon
  GI50: > 51.5 µM and 23.2 µM
  TGI: > 100 µM
OVCAR-3 ovarian
  GI50: 22 µM and 27.3 µM
  TGI: 60.2 µM and > 94.7 µM
HOP-92 NSCLC
  GI50: 7.78 µM and 12.8 µM
  TGI: 38.1 µM and 48.2 µM
HS 578T breast
  GI50: 16.4 µM and 20 µM
  TGI: 78.8 µM and > 96.3 µM
HOP-62 NSCLC
  GI50: 20.1 µM and 29.8 µM
  TGI: 96.4 µM and > 100 µM
HL-60(TB) leukemia
  GI50: 20.1 µM and 26.8 µM
  TGI: 65.4 µM and > 82.2 µM
SNB-75 CNS
  GI50: 6.51 µM and 7.05 µM
  TGI: 52.3 µM and 29.4 µM
A549 NSCLC
  GI50: 17.9 µM and 12.7 µM
  TGI: > 100 µM
MCF7 breast
  GI50: 2.53 µM and 16.8 µM
  TGI: > 100 µM
SF-539 CNS
  GI50: 16.8 µM and 21.5 µM
  TGI: > 81.2 µM
MDA-MB-435
  GI50: 12.3 µM and 8.31 µM
  TGI: 55.1 µM and 67.4 µM
A498 renal
  TGI: 5.32 µM and 51.2 µM
HCC-2998 colon
  GI50: 25.1 µM
  TGI: > 100 µM
MDA-MB-231 breast
  GI50: 13.6 µM and 22 µM
  TGI: > 85 µM
BT-549 breast
  TGI: 65.8 µM and 48.4 µM

## Cc1[nH]c(=O)[nH]c1C(=O)c1ccc(-n2ccnc2)cc1
786-0 renal
  TGI: > 100 µM
SNB-19 CNS
  TGI: > 100 µM
IGROV1 ovarian
  TGI: > 100 µM
NCI-H460 lung
  TGI: > 100 µM
K-562 leukemia
  TGI: > 100 µM
OVCAR-4 ovarian
  TGI: > 100 µM
U251 CNS
  TGI: > 100 µM
LXFL 529 NSCLC
  TGI: > 100 µM
RPMI-8226 leukemia
  TGI: > 100 µM
KM20L2 colon
  TGI: > 100 µM
HCT-15 colon
  TGI: > 100 µM
UACC-257 melanoma
  TGI: > 100 µM
SF-295 CNS
  TGI: > 100 µM
UO-31 renal
  TGI: > 100 µM
SN12C renal
  TGI: > 100 µM
RXF 393 renal
  TGI: > 100 µM
MALME-3M melanoma
  TGI: > 100 µM
OVCAR-5 ovarian
  TGI: > 100 µM
HT29 colon
  TGI: > 100 µM
SK-MEL-5 melanoma
  TGI: > 100 µM
SK-MEL-28 melanoma
  TGI: > 100 µM
LOX IMVI melanoma
  TGI: > 100 µM
MOLT-4 leukemia
  TGI: > 100 µM
CAKI-1 renal
  TGI: > 100 µM
OVCAR-8 ovarian
  TGI: > 100 µM
SF-268 CNS
  TGI: > 100 µM
SK-MEL-2 melanoma
  TGI: > 100 µM
M14 melanoma
  TGI: > 100 µM
M19-MEL melanoma
  TGI: > 100 µM
ACHN renal
  TGI: > 100 µM
UACC-62 melanoma
  TGI: > 100 µM
SW-620 colon
  TGI: > 100 µM
SR leukemia
  TGI: > 100 µM
HCT-116 colon
  TGI: > 100 µM
SK-OV-3 ovarian
  TGI: > 100 µM
NCI-H226 lung
  TGI: > 100 µM
NCI-H522 lung
  TGI: > 100 µM
KM12 colon
  TGI: > 100 µM
OVCAR-3 ovarian
  TGI: > 100 µM
DMS 114 small cell lung
  TGI: > 100 µM
HOP-62 NSCLC
  TGI: > 100 µM
DLD-1 colon
  TGI: > 100 µM
HL-60(TB) leukemia
  TGI: > 100 µM
SNB-75 CNS
  TGI: > 100 µM
A549 NSCLC
  TGI: > 100 µM
SF-539 CNS
  TGI: > 100 µM
A498 renal
  TGI: > 100 µM
HCC-2998 colon
  TGI: > 100 µM
DMS 273 small cell lung
  TGI: > 100 µM
